Tests used:
[1] = test system: hypotensive effect induced by PAF in normotense rats; experiment: Inhibition of the hypotensive effect induced by PAF in normotense rats; format: in vivo, male Sprage Dawley rats; settings: Rattus norvegicus, iv, 0.05 h; i.v., test compound via femoral vein 3 min. before PAF 0.5 mcg/Kg i.v.; anaesthetized rats; read-out: ID50 (inhibition of PAF-induced hypotension)
Procedure: Inhibition of the hypotensive effect induced by PAF in normotense rats.
Male Sprage Dawley rats (b.w. 180-220 g) anaesthetized with sodium pentobarbital (50 mg/Kg, i.p. 1 mL/100 g) are used. In order to measure the arterial pressure, a polyethylene catheter is introduced into the carotid artery. The arterial pressure is recorded with the help of a transducer coupled to a R611 Beckman polygraph. The test compounds are administered through the femoral vein 3 min. before PAF injection (0.5 mcg/Kg, i.v.). Control animals receive only the vehicle.

[2] = test system: platelet aggregation induced by PAF; experiment: Inhibition of platelet aggregation induced by PAF (rabbit platelet rich plasma, Born nephelometric technique); format: cell-based, male New Zealand albino rabbits; settings: Oryctolagus cuniculus, rabbit PRP, 3×10^5 platelets/mm^3, PAF (C18) 15 nM
Procedure: Inhibition of platelet aggregation induced by PAF.
Blood is obtained by cardiac puncture of male New Zealand albino rabbits (b.w. 2-2.5 Kg) and coagulation is prevented by adding 1 part of 3.16% sodium citrate dihydrate in 9 parts of blood. Platelet rich plasma (PRP) is prepared by centrifuging the blood at 250×g for 10 min. at 4° C. and then it is diluted with platelet poor plasma (PPP) obtained by further centrifuging at 3000×g for 10 min. The platelet count is adjusted to 3×10^5 /mm^3. Platelet aggregation induced by PAF (C18, prepared in our laboratory) (15 nM) is determined by the Born nephelometric technique (J. Physiol., 1962, 162, 67) using an aggregometer Chrono-log 500. The activities of the inhibitors are expressed as the IC50 value, that is to say the concentration of the drug needed to inhibit platelet aggregation by 50%.

Compound | IC50 [2] [nM] | ED50 [1] [mg/kg]
Cc1ncccc1C(C#N)N1CCN(C(=O)Cc2ccc(OCc3ccc4ccccc4n3)cc2)CC1 (stereo not drawn) [Compound 1, 1-[p-(2-Quinolylmethoxy)phenylacetyl]-4-[(2-methyl-3-pyridyl)cyanomethyl]piperazine] | 6700 | 0.69
Cc1ncccc1C(C#N)N1CCN(C(=O)CC(NC(=O)Cc2ccc(OCc3ccc4ccccc4n3)cc2)c2ccccc2)CC1 (stereo not drawn) [Compound 3, 1-[3-[N-[p-(2-quinolylmethoxy)phenylacetyl]]amino-3-phenylpropionyl]-4-[(2-methyl-3-pyridiyl)cyanomethyl]piperazine] | 80 | 0.036
Cc1ncccc1C(C#N)N1CCN(C(=O)CC(NC(=O)c2ccc(OCc3ccc4ccccc4n3)cc2)c2ccccc2)CC1 (stereo not drawn) [Compound 5, 1-[3-[N-[p-(2-quinolylmethoxy)benzoyl]]amino-3-phenylpropionyl]-4-[(2-methyl-3-pyridyl)cyanomethyl]piperazine] | 680 | 0.21
Cc1ncccc1C(C#N)N1CCN(C(=O)CC(NC(=O)c2cccc(OCc3ccc4ccccc4n3)c2)c2ccccc2)CC1 (stereo not drawn) [Compound 6, 1-[3-[N-[3-(2-quinolylmethoxy)benzoyl]]amino-3-phenylpropionyl]-4-[(2-methyl-3-pyridyl)cyanomethyl]piperazine] | 740 | 0.16
N#CC(c1cccnc1)C1CCN(C(=O)[C@H](NC(=O)Cc2ccc(OCc3ccc4ccccc4n3)cc2)c2ccccc2)CC1 (stereo partly drawn) [Compound 10, 1-[N-[p-(2-quinolylmethoxy)phenylacetyl]-D-2-phenylglycinyl]-4-(3-pyridylcyanomethyl)piperidine] | 550 | 0.12

Further lines, with some results ahead:

IC50 [2] [nM] | Compound | ED50 [1] [mg/kg]
1800 | Cc1ncccc1C(C#N)N1CCN(C(=O)CNC(c2ccccc2)c2ccc(OCc3ccc4ccccc4n3)cc2)CC1 (stereo not drawn) [Compound 2] | 0.057
12 | Cc1ncccc1C(C#N)N1CCN(C(=O)CC(NC(=O)Cc2cccc(OCc3ccc4ccccc4n3)c2)c2ccccc2)CC1 (stereo not drawn) [Compound 4, 1-[3-[N-[3-(2-quinolylmethoxy)phenylacetyl]]amino-3-phenylpropionyl]-4-[(2-methyl-3-pyridyl)cyanomethyl]piperazine] | 0.041
55 | N#CC(c1cccnc1)C1CCN(C(=O)CC(NC(=O)c2ccc(OCc3ccc4ccccc4n3)cc2)c2ccccc2)CC1 (stereo not drawn) [Compound 7, 1-[3-[N-[p-(2-quinolylmethoxy)benzoyl]]amino-3-phenylpropionyl]-4-(3-pyridylcyanomethyl)piperidine] | 0.25
660 | N#CC(c1cccnc1)C1CCN(C(=O)[C@H](NC(=O)c2cccc(OCc3ccc4ccccc4n3)c2)c2ccccc2)CC1 (stereo partly drawn) [Compound 13, 1-[N-[3-(2-quinolylmethoxy)benzoyl]-D-2-phenylglycinyl]-4-(3-pyridylcyanomethyl)piperidine] | 0.21

From US5420131A, “Cyanomethylpyridine derivatives” (J. Uriach & Cia, S.A., priority 1993, dated 1995)
